These results are taken from ChEMBL document CHEMBL5150000, “Insights on Dengue and Zika NS5 RNA-dependent RNA polymerase (RdRp) inhibitors” (Eur J Med Chem, 2021).

The target in data set [1] is T1, Nonstructural protein 5 (Dengue virus, UniProt V5TFZ2). Description: Inhibition of DENV NS5/RNA-dependent RNA polymerase.
Another data set addresses Genome polyprotein (dengue virus type 2, UniProt P29990). Description: Inhibition of DENV-2 DENV2 NS2B-NS3.
Data set [2] is described as follows: Cytotoxicity against African green monkey Vero cells. The class given is toxicity, cell-based. The conditions noted are these: chlorocebus sabaeus.
In data set [3] the test system is Dengue virus. The data set can be described thus: Antiviral activity against DENV NS5/RNA-dependent RNA polymerase. The class given is functional, organism-based.
Data set [4] deals with dengue virus type 2. The data set can be described thus: Antiviral activity against DENV-2 RNA-dependent RNA polymerase infected in human Huh-7 cells assessed as reduction in viral replication by RT-PCR analysis. It counts as functional, organism-based.
The test system of data set [5] is Zika virus. Description: Antiviral activity against Zika virus infected in African green monkey Vero cells assessed as reduction in viral replication incubated for 24 hrs. It counts as functional, organism-based.
Data set [6] in a line: Inhibition of DENV RNA-dependent RNA polymerase activity. Also on record: species or system Dengue virus.
For data set [7], the target named is T2, NS5 (Zika virus, UniProt A0A143MHK7). Description: Inhibition of Zika virus RNA-dependent RNA polymerase activity.
T2 sequence (A0A143MHK7 whole entry): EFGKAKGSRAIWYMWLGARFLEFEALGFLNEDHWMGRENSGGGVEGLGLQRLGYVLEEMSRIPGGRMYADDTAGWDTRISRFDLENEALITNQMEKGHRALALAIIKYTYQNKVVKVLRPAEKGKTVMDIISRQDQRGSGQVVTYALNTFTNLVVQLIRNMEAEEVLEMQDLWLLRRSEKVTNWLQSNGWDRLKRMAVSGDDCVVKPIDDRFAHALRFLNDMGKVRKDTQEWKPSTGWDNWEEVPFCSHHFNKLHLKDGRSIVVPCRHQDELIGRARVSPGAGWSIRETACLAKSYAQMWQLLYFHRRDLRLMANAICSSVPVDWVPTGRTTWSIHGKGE
For another data set, the system named is dengue virus type 1. The data set can be described thus: Antiviral activity against DENV-1 RNA-dependent RNA polymerase infected in African green monkey Vero cells assessed as reduction in viral replication incubated for 2 days by qRT-PCR analysis. The class given is functional, organism-based. As to conditions: 48 h.
The test system of data set [8] is dengue virus type 2. The data set can be described thus: Antiviral activity against DENV-2 RNA-dependent RNA polymerase infected in African green monkey Vero cells assessed as reduction in viral replication incubated for 2 days by qRT-PCR analysis. The class given is functional, organism-based. The conditions noted are these: 48 h.
The next data set has as its system dengue virus type 3. The data set can be described thus: Antiviral activity against DENV-3 RNA-dependent RNA polymerase infected in African green monkey Vero cells assessed as reduction in viral replication incubated for 2 days by qRT-PCR analysis. It counts as functional, organism-based. The conditions noted are these: 48 h.
Data set [9] has as its system dengue virus type 4. Description: Antiviral activity against DENV-4 RNA-dependent RNA polymerase infected in African green monkey Vero cells assessed as reduction in viral replication incubated for 2 days by qRT-PCR analysis. It counts as functional, organism-based. As to conditions: 48 h. A general note: In qPCR the cycle at which signal appears reflects the starting amount.

In data set [10] the target is Nonstructural protein 5 (Dengue virus) (UniProt V5TFZ2). The data set can be described thus: Binding affinity to DENV-3 NS5 assessed as gibbs free energy change. The conditions noted are these: dengue virus type 3.
The subject of the next data set is Vero. Description: Inhibition of DENV-2 RNA-dependent RNA polymerase in African green monkey Vero cells measured for 24 to 72 hrs relative to control. It counts as cell-based. The conditions noted are these: dengue virus type 2, time 24-72 hrs, dose or concentration not given here.
A short description of data set [11]: Inhibition of DENV-3 RNA-dependent RNA polymerase. Also on record: species or system dengue virus type 3.
Data set [12] in a line: Binding affinity to DENV-3 RNA-dependent RNA polymerase assessed as dissociation constant incubated for 40 sec by surface plasmon resonance analysis. Details: species or system dengue virus type 3. (In SPR one partner is held on a chip, and binding of the other changes the refractive index at the surface.)
Data set [13] deals with dengue virus type 4. Description: Binding affinity to DENV-4 RNA-dependent RNA polymerase assessed as change in enthalpy by ITC analysis. In general terms: In ITC the heat of successive injections is recorded.
Data set [14] has as its target T1, Nonstructural protein 5. The data set can be described thus: Inhibition of DENV-4 NS5. Also on record: species or system dengue virus type 4.
A short description of data set [15]: Inhibition od DENV-2 RNA-dependent RNA polymerase. Details: species or system dengue virus type 2.
Another data set deals with Hepacivirus hominis. Description: Inhibition of C-terminal his6-tagged HCV NS5/RNA-dependent RNA polymerase expressed in Escherichia coli at 100 uM incubated for 2 hrs by Microbeta counter analysis.
For data set [16], the target named is T3, DNA polymerase alpha catalytic subunit (Homo sapiens) (UniProt P09884).
T3 sequence (whole entry): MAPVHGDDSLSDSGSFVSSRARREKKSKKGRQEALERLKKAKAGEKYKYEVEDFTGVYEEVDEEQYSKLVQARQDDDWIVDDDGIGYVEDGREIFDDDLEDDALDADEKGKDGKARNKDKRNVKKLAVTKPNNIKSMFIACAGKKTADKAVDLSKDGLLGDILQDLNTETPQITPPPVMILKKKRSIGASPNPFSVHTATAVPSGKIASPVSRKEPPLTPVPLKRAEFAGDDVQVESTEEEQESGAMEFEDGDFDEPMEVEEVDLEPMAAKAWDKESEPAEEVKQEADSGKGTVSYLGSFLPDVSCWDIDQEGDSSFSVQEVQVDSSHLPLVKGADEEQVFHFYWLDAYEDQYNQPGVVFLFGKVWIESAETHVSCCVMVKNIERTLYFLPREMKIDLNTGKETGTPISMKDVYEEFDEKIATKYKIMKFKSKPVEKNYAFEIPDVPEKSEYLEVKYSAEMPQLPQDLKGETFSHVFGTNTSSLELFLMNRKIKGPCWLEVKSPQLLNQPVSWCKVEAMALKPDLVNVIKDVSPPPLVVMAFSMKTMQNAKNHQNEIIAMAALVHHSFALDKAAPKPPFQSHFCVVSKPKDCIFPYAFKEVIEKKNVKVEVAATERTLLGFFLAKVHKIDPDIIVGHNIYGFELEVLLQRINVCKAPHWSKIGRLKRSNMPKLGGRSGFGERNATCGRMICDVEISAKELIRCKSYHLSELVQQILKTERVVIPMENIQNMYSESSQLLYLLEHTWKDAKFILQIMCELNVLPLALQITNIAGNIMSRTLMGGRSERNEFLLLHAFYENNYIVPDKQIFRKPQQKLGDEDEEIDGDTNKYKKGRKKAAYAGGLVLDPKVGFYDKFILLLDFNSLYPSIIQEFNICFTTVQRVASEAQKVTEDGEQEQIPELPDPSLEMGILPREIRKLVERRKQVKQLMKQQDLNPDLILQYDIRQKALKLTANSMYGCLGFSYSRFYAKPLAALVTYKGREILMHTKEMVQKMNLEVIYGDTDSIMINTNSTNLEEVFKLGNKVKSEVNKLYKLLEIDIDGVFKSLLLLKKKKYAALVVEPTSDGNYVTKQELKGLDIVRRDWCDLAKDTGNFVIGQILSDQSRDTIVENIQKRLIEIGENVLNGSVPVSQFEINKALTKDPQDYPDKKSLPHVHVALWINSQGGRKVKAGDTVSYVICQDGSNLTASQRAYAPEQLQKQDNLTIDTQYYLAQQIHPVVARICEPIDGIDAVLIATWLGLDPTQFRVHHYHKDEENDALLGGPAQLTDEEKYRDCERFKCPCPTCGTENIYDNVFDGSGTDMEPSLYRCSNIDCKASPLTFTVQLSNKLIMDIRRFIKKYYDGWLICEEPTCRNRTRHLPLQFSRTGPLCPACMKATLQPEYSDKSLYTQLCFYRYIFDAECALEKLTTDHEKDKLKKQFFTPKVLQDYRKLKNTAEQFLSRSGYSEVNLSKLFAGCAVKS
The data set can be described thus: Inhibition of human DNA polymerase alpha at 100 uM incubated for 60 mins by Microbeta counter analysis.

Data set [17] concerns the target T1, Nonstructural protein 5. The data set can be described thus: Inhibition of DENV-2 NS5. Details: species or system dengue virus type 2.
The subject of data set [18] is Zika virus. The data set can be described thus: Antiviral activity against Zika virus NS5/RNA-dependent RNA polymerase. It counts as functional, organism-based.
In data set [19] the test system is Dengue virus. Description: Inhibition of DENV RNA-dependent RNA polymerase relative to control. The conditions noted are these: concentration not given here.
The next data set deals with NS5 (Zika virus) (UniProt A0A143MHK7). The data set can be described thus: Inhibition of Zika virus RNA-dependent RNA polymerase relative to control. As to conditions: concentration not given here.
NS5 (Zika virus), sequence (A0A143MHK7 as listed by the source): as the sequence (A0A143MHK7 whole entry) above
Data set [20] addresses T2, NS5. Description: Inhibition of Zika virus wild type RNA-dependent RNA polymerase using ATP as substrate.
Data set [21] concerns Zika virus. Description: Antiviral activity against Zika virus SMGC-1 infected in human Huh-7 cells assessed as reduction in viral titer. As to conditions: SMGC-1, Huh-7. The class given is functional, organism-based.
Data set [22] is described as follows: Inhibition of DENV RNA-dependent RNA polymerase in hamster BHK-21 cells. It counts as cell-based, Dengue virus.
Data set [23] can be described thus: Cytotoxicity against hamster BHK-21 cells. The class given is toxicity, cell-based, Mesocricetus auratus.

Genome polyprotein, sequence (P29990 1346-1475 limits assumed): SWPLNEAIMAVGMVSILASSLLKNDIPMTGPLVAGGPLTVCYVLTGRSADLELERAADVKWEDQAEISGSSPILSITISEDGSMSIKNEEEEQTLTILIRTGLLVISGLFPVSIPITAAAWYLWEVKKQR
Genome polyprotein, sequence (P29990 1476-2093 limits assumed): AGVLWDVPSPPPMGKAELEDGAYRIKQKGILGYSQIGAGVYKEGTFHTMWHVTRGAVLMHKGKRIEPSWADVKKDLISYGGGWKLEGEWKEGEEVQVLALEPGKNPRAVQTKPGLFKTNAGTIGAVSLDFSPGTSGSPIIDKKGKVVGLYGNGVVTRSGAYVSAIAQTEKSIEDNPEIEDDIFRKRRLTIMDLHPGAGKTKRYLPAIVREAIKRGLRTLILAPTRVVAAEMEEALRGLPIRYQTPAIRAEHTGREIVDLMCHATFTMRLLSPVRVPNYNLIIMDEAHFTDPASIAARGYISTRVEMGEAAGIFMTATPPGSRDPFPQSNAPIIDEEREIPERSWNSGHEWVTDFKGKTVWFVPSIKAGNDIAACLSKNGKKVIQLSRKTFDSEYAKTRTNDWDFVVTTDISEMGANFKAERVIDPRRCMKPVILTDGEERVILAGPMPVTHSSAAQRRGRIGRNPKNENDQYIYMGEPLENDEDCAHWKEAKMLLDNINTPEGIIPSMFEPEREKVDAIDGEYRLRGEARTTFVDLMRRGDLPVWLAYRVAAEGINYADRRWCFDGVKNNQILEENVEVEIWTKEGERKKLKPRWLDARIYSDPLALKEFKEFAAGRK

The IC50 is the concentration that gives 50% inhibition. As for `COc1ccc(-c2cc(=O)c3c(O)cc(O)c(-c4cc(-c5cc(=O)c6c(O)cc(O)cc6o5)ccc4O)c3o2)cc1` [PODOCARPUSFLAVONE A], at Nonstructural protein 5 [1], the IC50 is […].
`O=C(N[C@@H](Cc1ccc(O)cc1)C(=O)O)c1cc(-c2ccccc2)c(=O)n2c1sc1ccc(OC3CCCCC3)cc12` gave a concentration for half-maximal inhibition (IC50) against Genome polyprotein of 9.61 µM.
As a reminder, the CC50 is the concentration giving 50% cytotoxicity. As for `CCCCC#CC#CC#CCCCCCCCC(=O)O`, the CC50 in data set [2] was 30 µM. Moreover, half-maximal inhibition with Dengue virus [3] (IC50) required 2.7 µM.
As a reminder, the EC50 is the concentration at which the effect is half-maximal. `O=C(NCCO)c1cc(-c2ccccc2)c(=O)n2c1sc1ccc(C3CCCCC3)cc12`: the EC50 in the data set on dengue virus type 2 [4] was determined as 1.9 µM; in the data set on Zika virus [5], 1.8 µM.
Take `CCC(CC)COC(=O)[C@H](C)N[P@](=O)(OC[C@H]1O[C@@](C#N)(c2ccc3c(N)ncnn23)[C@H](O)[C@@H]1O)Oc1ccccc1`: the concentration for half-maximal inhibition (IC50) in data set [6] was found to be 1.4 µM; against NS5 [7], 1.36 µM.
For the molecule `C[C@@]1(O)[C@H](O)[C@@H](CO)O[C@H]1n1cc(F)c2c(N)ncnc21`, the EC50 in the data set on dengue virus type 1 worked out at 0.96 µM; in the data set on dengue virus type 2 [8], 0.46 µM; with dengue virus type 3, 0.85 µM; in the data set with dengue virus type 4 [9] it was 0.87 µM.
In the case of `O=C1N=C(SCC(=O)N2CCN(c3ccc(F)cc3)CC2)N=C2CCN(Cc3ccccc3)C[C@H]12`, the deltaG in data set [10] is -6.43 kcal/mol.
Broadly, the inhibition is the change of the read-out against control, counted positive when it falls. `CC(C)[C@H](N)C(=O)OCC(CO)OCn1cnc2c(=O)[nH]c(N)nc21` (stereo partly drawn) registered an inhibition with Vero of 10%.
Turning to `O=C(Nc1nc(-c2cccc3ccccc23)n[nH]1)C1=CNc2ccccc2N1`, the deltaG in [10] is -4.89 kcal/mol.
A word on the Kd: it is the concentration at which binding is half-saturated. As to `COc1ccc(CC(=O)O)cc1-c1cccs1`, the IC50 in data set [11] amounted to 0.144 µM; on Nonstructural protein 5 [14], 140 µM. In [12], the dissociation constant Kd was 29 µM. Moreover, in the data set with dengue virus type 4 [13], the deltaH was -5.96 kcal/mol.
For the molecule `O=C(O)c1ccccc1NS(=O)(=O)c1cccc(-c2cnn(Cc3ccccc3)c2)c1`, the half-maximal inhibitory concentration (IC50) is 5.2 µM against Nonstructural protein 5 [14], 0.7 µM in data set [15] and 4.6 µM against Nonstructural protein 5 [17]. Besides, the inhibition stood at 23% in the data set on Hepacivirus hominis and 32% in [16].
On to `O=C(N[C@@H](Cc1ccc(O)cc1)C(=O)O)c1cc(-c2ccccc2)c(=O)n2c1sc1ccc(C3CCCCCC3)cc12`, for which the EC50 in the data set on dengue virus type 2 [4] is 3.7 µM; in the data set on Zika virus [5] it was 1.6 µM.
`O[C@H]1[C@H]2c3cc4c(cc3CN3CCC(=C[C@@H]1O)[C@H]23)OCO4` [LYCORINE] came in with an EC50 with Zika virus [18] of 0.39 µM. The molecule also returned a cytotoxic concentration (CC50) in data set [2] of 21 µM.
On to `O=C(NCc1ccc(O)cc1)c1cc(-c2ccccc2)c(=O)n2c1sc1ccc(C3CCCCC3)cc12`, for which the EC50 was found to be 1.8 µM in the data set with dengue virus type 2 [4] and 1 µM with Zika virus [5].
In turn, `C[C@@]1(F)[C@H](O)[C@@H](COP(=O)(O)OP(=O)(O)OP(=O)(O)O)O[C@H]1n1ccc(N)nc1=O` [PSI-6130-TP] registered a half-inhibitory concentration (IC50) in [6] of 1.6 µM. Besides, the inhibition with Dengue virus [19] worked out at 85%; against NS5 (Zika virus) it was 67.4%.
In turn, `CCNC(=O)Cn1cnc(NC(=O)c2cc(-c3ccc(C)cc3)nc3onc(C)c23)n1` came in with an IC50 against NS5 [20] of 1.13 µM. The concentration for a half-maximal effect (EC50) in the data set on Zika virus [21] is 7.43 µM. In addition, in data set [10], the deltaG is -10.5 kcal/mol.
In data set [22], `C#Cc1c(C#N)ncn1[C@@H]1S[C@H](CO)[C@@H](O)[C@H]1O` displayed an IC50 of 6.57 µM. In [23], this molecule gave a 50% cytotoxic concentration (CC50) greater than 50 µM.
